# Source: US11028052B2, “Compounds useful as modulators of TRPM8” (Firmenich Incorporated, priority 2013, dated 2021)
# Tests used:
# hTRPM8 [1] = target: T1, hTRPM8 (Homo sapiens, UniProt Q7Z2W7); experiment: hTRPM8 cell line agonist assay (section 2.1); assay type: cell-based; details: for EC50: cell line stably expressing hTRPM8; for EC50 Ratio (WS3): relative to WS3 screened on the same day, greater than one = more potent than WS3
# T1 construct: expressed in transfected cells
# Experimental: A cell line which stably expresses hTRPM8 was used in biological assays in association with testing the present compounds with cool-tasting or -feeling properties. Typical compound concentrations tested were 100 μM, 50 μM, 10 μM, 1 μM, and 0.5 μM. The present compounds have shown activity as agonists of hTRPM8. Assay results for compounds are illustrated in the table below. EC50 in micromoles (μM) is presented as well as the activity relative to WS3 (an established, commercially available cooling agent). […] A value of 1 indicates the compound is equipotent to WS3 in the assay. […] It is noted that Compounds 2.A1 to 2.S6 in the table below are the Examples described in this application. For example, Compound 2.B 1 is Example 2.2.
# hTRPM8 [2] = target: T1, hTRPM8; experiment: hTRPM8 cell based agonist assay (section 3.1); details: for EC50: mammalian cell line stably expressing TRPM8; for EC50 Ratio (WS3): relative to WS3
# From the text: The present compounds are useful as modulators of TRPM8. The activity of TRPM8 can be readily monitored in cell based assays using fluorescent calcium-sensitive dyes, membrane potential dyes, or sodium-sensitive dyes. The activity of TRPM8 can also be monitored with electrophysiological set-ups, such as patch-clamping and two-electrode voltage clamping. A mammalian cell line derivative which stably expresses TRPM8 was used in biological assays in association with testing the present compounds with cool-tasting or -feeling properties (Servant et al. US 2007/0259354 A1 and references cited therein). Typical compound concentrations tested were 50 μM, 20 μM, 10 μM, 5 μM, 2 μM, 1 μM, 0.5 μM, 0.1 μM, 0.05 μM, 0.01 μM, and other concentration points in between. The present compounds have shown strong activity as agonists of hTRPM8. Assay results for compounds are illustrated in Table 1 below. Specifically, the Compounds listed in Table 3.1, i.e., Compounds 3.A1 to Compounds 3.D1 are the specific compounds as described above.
# T1 sequence (Q7Z2W7 whole entry): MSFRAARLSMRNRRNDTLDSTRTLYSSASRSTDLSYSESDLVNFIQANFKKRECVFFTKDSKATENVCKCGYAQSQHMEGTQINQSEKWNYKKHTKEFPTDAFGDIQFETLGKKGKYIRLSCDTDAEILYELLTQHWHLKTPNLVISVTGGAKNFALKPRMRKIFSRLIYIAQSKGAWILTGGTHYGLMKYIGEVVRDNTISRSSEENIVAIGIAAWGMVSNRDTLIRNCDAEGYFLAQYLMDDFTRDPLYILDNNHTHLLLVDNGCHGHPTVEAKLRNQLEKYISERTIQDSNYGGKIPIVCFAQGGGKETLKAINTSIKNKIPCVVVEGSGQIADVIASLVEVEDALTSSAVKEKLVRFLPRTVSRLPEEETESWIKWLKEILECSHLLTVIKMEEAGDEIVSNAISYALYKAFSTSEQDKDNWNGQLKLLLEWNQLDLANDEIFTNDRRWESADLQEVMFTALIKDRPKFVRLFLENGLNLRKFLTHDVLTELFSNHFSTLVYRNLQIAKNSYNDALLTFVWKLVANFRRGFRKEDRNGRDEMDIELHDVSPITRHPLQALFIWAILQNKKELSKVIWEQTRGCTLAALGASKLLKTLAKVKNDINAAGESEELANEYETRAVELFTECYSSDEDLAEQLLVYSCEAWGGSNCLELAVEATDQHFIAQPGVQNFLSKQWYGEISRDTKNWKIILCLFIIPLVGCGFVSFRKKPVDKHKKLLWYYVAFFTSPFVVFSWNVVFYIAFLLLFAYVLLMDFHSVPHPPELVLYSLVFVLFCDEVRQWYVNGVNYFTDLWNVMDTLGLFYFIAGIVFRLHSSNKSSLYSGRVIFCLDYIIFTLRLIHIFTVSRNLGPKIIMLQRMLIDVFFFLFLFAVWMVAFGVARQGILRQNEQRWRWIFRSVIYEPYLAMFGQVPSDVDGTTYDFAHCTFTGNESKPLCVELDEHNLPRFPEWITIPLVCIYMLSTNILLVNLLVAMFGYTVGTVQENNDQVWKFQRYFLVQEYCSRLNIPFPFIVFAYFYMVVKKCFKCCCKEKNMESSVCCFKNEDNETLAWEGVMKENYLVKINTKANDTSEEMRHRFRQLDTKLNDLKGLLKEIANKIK
SMILES,EC50 (hTRPM8 [1]),EC50 Ratio (WS3) (hTRPM8 [1]),EC50 (hTRPM8 [2]),EC50 Ratio (WS3) (hTRPM8 [2])
CN1C(=O)N(CC(=O)c2ccccc2)C(=O)C1(C)C1=CCCCC1 (stereo not shown) [Compound 2.F3],138 nM,44.0,–,–
Cc1cccc(C(C)C(=O)N(C)CC(=O)c2ccccc2)c1 (stereo not shown) [Example 3.E6],–,–,4470 nM,2.5
CN1CC(C)(C2=CCCCC2)CN(CC(=O)c2ccccc2)C1=O (stereo not shown) [Compound 2.F1],2880 nM,1.6,–,–
CC(C(=O)N(C)CC(=O)c1cc(O)cc(O)c1)C1CCCCC1 (stereo not shown) [Example 3.A3],–,–,28 nM,221.2
CN1C(=O)N(CC(=O)c2cccnc2)C(=O)C1(C)CCc1ccccc1 (stereo not shown) [Compound 2.U5],3720 nM,0.9,–,–
CC(C(=O)N(C)CC(=O)c1ccccc1)C1CCCCC1 (stereo not shown) [Example 3.A2],–,–,10 nM,577.8
CC(C)(C(=O)NCC(=O)c1cccnc1)C1CCCCC1 [Example 3.B4],–,–,230 nM,26.5
CN1C(=O)N(CC(=O)c2ccc(O)cc2)C(=O)C1(C)C1CCCCC1 (stereo not shown) [Compound 2.D3],124 nM,33.4,–,–
"CN1C(=O)N(CC(=O)c2ccc[nH]2)C(=O)C1(C)C1CC2CCC1C2 (single isomer, unassigned) [Compound 2.O3]",223 nM,21.6,–,–
CN1C(=O)N(CC(=O)c2cccc(O)c2)C(=O)C1(C)C1CC2CCC1C2 (stereo not shown) [Compound 2.C3],100 nM,49.1,–,–
C[C@H](C(=O)N(C)CC(=O)c1ccsc1)C1CCCCC1 [Example 3.A4],–,–,41 nM,132.4
CC1CCCC1C1(C)C(=O)N(CC(=O)c2ccccc2)C(=O)N1C (mixture of isomers) [Compound 2.L3],182 nM,25.9,–,–
CC(C(=O)NCC(=O)c1ccccc1)C1CC2CCC1C2 (stereo not shown) [Example 3.F9],–,–,3390 nM,1.0
CC(C(=O)N(C)CC(=O)c1cccc(O)c1)C1CCCCC1 (stereo not shown) [Example 3.A1],–,–,13 nM,581.6
CN(CC(=O)c1ccc(F)cc1)C(=O)C(C)(C)C1CCCCC1 [Example 3.E7],–,–,2160 nM,1.9
CC(C(=O)N(C)CC(=O)c1ccccc1)c1ccccc1 (stereo not shown) [Example 3.D6],–,–,2350 nM,3.9
"CN1CC(C)(C2CCCCC2)C(=O)N(CC(=O)c2cccnc2)C1=O (stereo not shown) [Example 2.2, 5-cyclohexyl-1,5-dimethyl-3-(2-oxo-2-(pyridin-3-yl)ethyl)dihydropyrimidine-2,4(1H,3H)-dione]",374 nM,13.5,–,–
"CN1C(=O)N(CC(=O)c2ccccc2)C(=O)C1(C)C1CC2CCC1CC2 (single isomer, unassigned) [Compound 2.A3]",100 nM,73.1,–,–
CN1C(=O)N(CC(=O)c2ccccc2)C(=O)C1(C)C1CC2CCC1CC2 (stereo not shown) [Compound 2.I3],163 nM,33.8,–,–
"CN1C(=O)N(CC(=O)c2cccc(O)c2)C(=O)C1(C)C1CC2CCC1C2 (single isomer, unassigned) [Compound 2.B3]",–,2810.1,–,–
CN1C(=O)N(CC(=O)c2ccccc2)C(=O)C1(C)C1CC2C=CC1CC2 (stereo not shown) [Compound 2.E3],127 nM,53.5,–,–
CN1C(=O)N(CC(=O)c2ccccc2)C(=O)C(C)(C2=CCCCC2)C1=O (stereo not shown) [Compound 2.M3],192 nM,240.6,–,–
